This is an account of results in patent US12502380B2, “MrgprX2 antagonists for the treatment of inflammatory disorders” (Dermira, Inc., priority 2019, dated 2025).

This experiment has as its target T1, Human MrgprX2 (Homo sapiens, UniProt Q96LB1).
T1 construct: expressed in transfected cells
T1 sequence (Q96LB1 1-330): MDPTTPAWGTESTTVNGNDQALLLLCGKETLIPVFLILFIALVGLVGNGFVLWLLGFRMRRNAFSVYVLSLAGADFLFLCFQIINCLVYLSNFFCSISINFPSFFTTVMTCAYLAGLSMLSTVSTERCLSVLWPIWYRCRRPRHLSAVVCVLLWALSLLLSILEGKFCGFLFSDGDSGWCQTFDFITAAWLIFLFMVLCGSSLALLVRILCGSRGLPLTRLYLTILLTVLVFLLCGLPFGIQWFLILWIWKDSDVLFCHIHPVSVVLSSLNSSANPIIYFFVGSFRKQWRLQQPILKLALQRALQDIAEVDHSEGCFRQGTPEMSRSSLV
Nature of the experiment: Human MrgprX2 antagonist FLIPR intracellular calcium mobilization assay. In kind it is cell-based. As to conditions: antagonist activity, recombinant hMrgpMRGPRX2 expressing cells, read-out: Human MrgprX2 Antagonist pIC50 (converted). An excerpt:
Potent and selective hMrgpMRGPRX2 compounds have been generated from compounds identified during a high throughput screening (HTS) campaign and followed up with cycles of structure activity based medicinal chemistry efforts. These compounds were characterized in recombinant hMrgpMRGPRX2 expressing cells for their antagonist activity and the potency was confirmed in the human mast cell line LAD-2, where the target is endogenously expressed. The assays used to determine potencies are functional read-out looking at intracellular calcium mobilization using the FLIPR™ technology. In these FLIPR assays, we test the identified compounds using recombinant cellular systems expressing mouse MrgprB2, mouse MrgprA1, gerbil MrgpMRGPRX2 orthologue, Chinese hamster MrgpMRGPRX2 orthologue and cynomolgus monkey MrgpMRGPRX2 orthologue, respectively for orthologue activity.
A general note: Calcium flux is commonly read through the fluorescence of an indicator in the cells.

Molecules are shown by their SMILES.

Take `C[C@H]1CN(C(=O)Nc2ncc(Cc3cccc(F)c3)s2)CCO1` [Compound E107]: the IC50 was 3980 nM. Next, `CC(C)C(=O)Nc1nc(-c2ccccc2)cs1` [Compound E039]: 6310 nM; `CC(C)N(C)C(=O)c1ncc(Cc2cccc(F)c2)s1` [Compound E218, 5-[(3-fluorophenyl)methyl]-N-isopropyl-N-methyl-thiazole-2-carboxamide]: 7940 nM.

As to `CC(C)(C)OC(=O)N1CCC[C@@H]1C(=O)Nc1ncc(Oc2ccccc2)s1` [Compound E082, tert-butyl (2R)-2-[(5-phenoxythiazol-2-yl)carbamoyl]pyrrolidine-1-carboxylate], the IC50 is 1260 nM. With `CC(C)C(=O)Nc1ncc(Cc2ccc(F)cc2F)s1` [Compound E042], the IC50 was 39.8 nM.

For the compound `C[C@]1(C(=O)Nc2ncc(Cc3cccc(Cl)c3)s2)CCOC1` (single isomer, unassigned) [Compound E051, N-[5-[(3-chlorophenyl)methyl]thiazol-2-yl]-3-methyl-tetrahydrofuran-3-carboxamide], the IC50 was 100 nM. Next, `CCN(C[C@H](C)O)C(=O)Nc1nc(C)c(Oc2ccc(F)cc2)s1` [Compound E208]: 7.94 nM; `NS(=O)(=O)N1CCC[C@@H]1C(=O)Nc1ncc(Oc2ccc(F)cc2)s1` [Compound E089, (2R)—N-[5-(4-fluorophenoxy)thiazol-2-yl]-1-sulfamoyl-pyrrolidine-2-carboxamide]: 25.1 nM; `O=C(Nc1ncc(Cc2cccc(F)c2)s1)N1CCC1CO` (centres unmarked) [Compound E126]: 631 nM. Next, `O=C(Nc1ncc(Cc2cccc(F)c2)s1)N1CC[C@H](CO)C1` [Compound E112]: 794 nM; `CCN(CCO)C(=O)Nc1ncc(Oc2ccc(F)cc2)s1` [Compound E186]: 31.6 nM. Next, `CC1(C(=O)Nc2ncc(Oc3cccc(F)c3)s2)CCOC1` (centres unmarked) [Compound E078, N-[5-(3-fluorophenoxy)thiazol-2-yl]-3-methyl-tetrahydrofuran-3-carboxamide]: 2.51 nM. For `C[C@H](O)CN(C)C(=O)Nc1ncc(Oc2cccc(C#N)c2F)s1` [Compound E198], the IC50 was 398 nM. Next, `CC(C)(CO)C(=O)Nc1ncc(Cc2ccccc2F)s1` [Compound E010]: 1260 nM; `CC(C)C(=O)Nc1nc(C#N)c(Oc2ccc(F)cc2)s1` [Compound E081]: 2510 nM. Next, `NS(=O)(=O)N1CC[C@@H]1C(=O)Nc1ncc(Cc2cccc(F)c2)s1` [Compound E065]: 79.4 nM; `CC(C)(C(=O)Nc1ncc(Cc2ccc(F)cc2)s1)N1CCOCC1` [Compound E006]: 126 nM. Turning to `C[C@H](O)CN(C)C(=O)Nc1ncc(Oc2ccc(C#N)cc2)s1` [Compound E156], the IC50 was 39.8 nM.

Take `COc1ccc(F)cc1Cc1cnc(NC(=O)N(C)C[C@H](C)O)s1` [Compound E143]: the IC50 was 398 nM.

As to `CC(O)CN(C(=O)Nc1ncc(Cc2cccc(F)c2)s1)C1CC1` (centres unmarked) [Compound E114], the IC50 was 794 nM.

Regarding `CCN(C[C@H](C)O)C(=O)Nc1ncc(Oc2ccc(C)nc2)s1` [Compound E157], the IC50 was 126 nM. On to `CCN(C[C@H](C)O)C(=O)Nc1ncc(Cc2cc(F)cc(C#N)c2)s1` [Compound E146], for which the IC50 is 39.8 nM. Turning to `CC(C)C(=O)Nc1ncc(C(C)c2ccccc2)s1` (centres unmarked) [Compound E219, 2-methyl-N-[5-(1-phenylethyl)thiazol-2-yl]propanamide], the IC50 is 794 nM.

For the compound `C[C@H](O)CN(C)C(=O)Nc1ncc(Oc2cc(F)cc(C#N)c2)s1` [Compound E187], the IC50 is 1.26 nM. Next, `C[C@@]1(C(=O)Nc2ncc(Oc3cccc(F)c3)s2)CCOC1` (single isomer, unassigned) [Compound E083, N-[5-(3-fluorophenoxy)thiazol-2-yl]-3-methyl-tetrahydrofuran-3-carboxamide]: 3.98 nM; `CCN(C[C@H](C)O)C(=O)Nc1ncc(Oc2cccc(C#N)c2)s1` [Compound E162]: 1.58 nM.
